In patent publication EP1680415B1, “PYRROLIDINYL UREA DERIVATIVES AS ANGIOGENESIS INHIBITORS” (ABBOTT LABORATORIES, priority 2003, dated 2005):

Test system: HMVEC
Experiment: human microvascular endothelial (HMVEC) migration assay
Type: cell-based
Conditions: Inhibition of HMVEC migration, activators 15 ng/mL bFGF/VEGF, 4 hours at 37 °C, compared to a positive control; for inhibition at 0.0001 µM / inhibition at 0.001 µM: Homo sapiens; for inhibition at 0.001 µM: 1 nM
Description: The human microvascular endothelial (HMVEC) migration assay was run according to the procedure of S. S. Tolsma, O. V. Volpert, D. J. Good, W. F. Frazier, P. J. Polverini and N. Bouck, J. Cell Biol. 122, 497-511 (1993).
The HMVEC migration assay was carried out using Human Microvascular Endothelial Cells-Dermal (single donor) and Human Microvascular Endothelial Cells, (neonatal). The BCE or HMVEC cells were starved overnight in DME containing 0.01% bovine serum albumin (BSA). Cells were then harvested with trypsin and resuspended in DME with 0.01 % BSA at a concentration of 1.5 X 10^6 cells per mL. Cells were added to the bottom of a 48 well modified Boyden chamber (Nucleopore Corporation, Cabin John, MD). The chamber was assembled and inverted, and cells were allowed to attach for 2 hours at 37 °C to polycarbonate chemotaxis membranes (5 µm pore size) that had been soaked in 0.01 % gelatin overnight and dried. The chamber was then reinverted, and test substances (total volume of 50 µL), including activators, 15 ng/mL bFGF/VEGF, were added to the wells of the upper chamber. The apparatus was incubated for 4 hours at 37 °C. Membranes were recovered, fixed and stained (Diff Quick, Fisher Scientific) and the number of cells that had migrated to the upper chamber per 3 high power fields counted. Background migration to DME + […] was subtracted and the data reported as the number of cells migrated per 10 high power fields (400X) or, when results from multiple experiments were combined, as the percent inhibition of migration compared to a positive control.

SMILES | inhibition at 0.0001 µM (0.1 nM) | also measured
Cc1ccc(C(=O)N2CC[C@@H](NC(=O)NCc3ccc(F)cc3F)C2)cn1 [Example 30, N-(2,4-difluorobenzyl)-N'-{(3R)-1-[(6-methyl-3-pyridinyl)carbonyl]-3-pyrrolidinyl}urea] | 64% | –
Cc1ccc(C(=O)N2CC[C@@H](NC(=O)NCCC(c3ccccc3)c3ccccc3)C2)cn1 [Example 31, N-(3,3-diphenylpropyl)-N'-{(3R)-1-[(6-methyl-3-pyridinyl)carbonyl]-3-pyrrolidinyl}urea] | 79% | –
Cc1ccc(C(=O)N2CC[C@@H](NC(=O)N[C@@H](CO)c3ccccc3)C2)cn1 [Example 32, N-[(1R)-2-hydroxy-1-phenylethyl]-N'-{(3R)-1-[(6-methyl-3-pyridinyl)carbonyl]-3-pyrrolidinyl} urea] | 85% | –
Cc1ccc(C(=O)N2CC[C@@H](NC(=O)N[C@@H](C)c3ccccc3)C2)cn1 [Example 33, N-((3R)-1-[(6-methylpyridin-3-yl)carbonyl]pyrrolidin-3-yl)-N'-[(1S)-1-phenylethyl]urea] | 85% | –
CCCCN(CCCC)C(=O)N[C@@H]1CCN(C(=O)c2ccc(C)nc2Cl)C1 [Example 34, N,N-dibutyl-N'-{(3R)-1-[(2-chloro-6-methylpyridin-3-yl)carbonyl]pyrrolidin-3-yl}urea] | – | inhibition at 0.001 µM: 50%
COCCN(C(=O)N[C@@H]1CCN(C(=O)c2ccc(C)nc2Cl)C1)C(C)C [Example 35, N'-{(3R)-1-[(2-chloro-6-methylpyridin-3-yl)carbonyl]pyrrolidin-3-yl}-N-isopropyl-N-(2-methoxyethyl)urea] | 70% | –
Cc1ccc(C(=O)N2CC[C@@H](NC(=O)N[C@@H](CO)c3ccccc3)C2)c(Cl)n1 [Example 37, N-{(3R)-1-[(2-chloro-6-methylpyridin-3-yl)carbonyl]pynolidin-3-yl}-N'-[(1R)-2-hydroxy-1-phenylethyl]urea] | – | % Inhibition @ 0.1 nM (0.1 nM): 73%
CCOCCCNC(=O)N[C@@H]1CCN(C(=O)c2ccc(C)nc2Cl)C1 [Example 38, N-{(3R)-1-[(2-chloro-6-methylpyridin-3-yl)carbonyl]pyrrolidin-3-yl}-N'-(3-ethoxypropyl)urea] | 99% | –
Cc1ccc(C(=O)N2CC[C@@H](NC(=O)NCCCOC(C)C)C2)c(Cl)n1 [Example 39, N-{(3R)-1-[(2-chloro-6-methylpyridin-3-yl)carbonyl]pyrrolidin-3-yl}-N'-(3-isopropoxypropyl)urea] | – | inhibition at 0.001 µM: 72%
Cc1ccc(C(=O)N2CC[C@@H](NC(=O)NCCCOCC(C)C)C2)c(Cl)n1 [Example 40, N-{(3R)-1-[(2-chloro-6-methylpyridin-3-yl)carbonyl]pyrrolidin-3-yl}-N'-(3-isobutoxypropyl)urea] | 72% | –
CSCCCNC(=O)N[C@@H]1CCN(C(=O)c2ccc(C)nc2Cl)C1 [Example 41, N-{(3R)-1-[(2-chloro-6-methylpyridin-3-yl)carbonyl]pyrrolidin-3-yl}-N'-[3-(methylthio)propyl]urea] | 87% | –
Cc1ccc(C(=O)N2CC[C@@H](NC(=O)N(Cc3ccccc3)Cc3ccccc3)C2)c(Cl)n1 [Example 43, N,N-dibenzyl-N'-{(3R)-1-[(2-chloro-6-methylpyridin-3-yl)carbonyl]pyrrolidin-3-yl}urea] | 73% | –
Cc1ccc(C(=O)N2CC[C@@H](NC(=O)N(C)CCc3ccccc3)C2)c(Cl)n1 [Example 44, N'-{(3R)-1-[(2-chloro-6-methylpyridin-3-yl)carbonyl]pyrrolidin-3-yl}-N-methyl-N-(2-phenylethyl)urea] | 80% | –
COc1ccc(CCN(C)C(=O)N[C@@H]2CCN(C(=O)c3ccc(C)nc3Cl)C2)cc1OC [Example 45, N'-{(3R)-1-[(2-chloro-6-methylpyridin-3-yl)carbonyl]pyrrolidin-3-yl}-N-[2-(3,4-dimethoxyphenyl)ethyl]-N-methylurea] | 82% | –
Cc1ccc(C(=O)N2CC[C@@H](NC(=O)N3CCC(Cc4ccccc4)CC3)C2)c(Cl)n1 [Example 46, 4-benzyl-N-{(3R)-1-[(2-chloro-6-methylpyridin-3-yl)carbonyl]pyrrolidin-3-yl}piperidine-1-carboxamide] | 99% | –
Cc1ccc(C(=O)N2CC[C@@H](NC(=O)N3CCC(n4c(=O)[nH]c5ccccc54)CC3)C2)c(Cl)n1 [Example 47, N-{(3R)-1-[(2-chloro-6-methylpyridin-3-yl)carbonyl]pyrrolidin-3-yl}-4-(2-oxo-2,3-dihydro-1H-benzimidazol-1-yl)piperidine-1-carboxanude] | – | inhibition at 0.001 µM: 80%

SMILES | inhibition at 0.0001 µM (0.1 nM) | also measured
Cc1ccc(C(=O)N2CC[C@@H](NC(=O)N3CCN(c4ccccc4)CC3)C2)c(Cl)n1 [Example 48, N-{(3R)-1-[(2-chloro-6-methylpyridin-3-yl)carbonyl]pyrrolidin-3-yl}-4-phenylpiperazine-1-carboxamide] | – | inhibition at 0.001 µM: 78%
CCN(CC)CCN(C)C(=O)N[C@@H]1CCN(C(=O)c2ccc(C)nc2)C1 [Example 49, N-[2-(diethylamino)ethyl]-N-methyl-N'-{(3R)-1-[(6-methylpyridin-3-yl)carbonyl]pyrrolidin-3-yl}urea] | 65% | –
CCN(Cc1ccccc1)C(=O)N[C@@H]1CCN(C(=O)c2ccc(C)nc2)C1 [Example 50, N-benzyl-N-ethyl-N'-{(3R)-1-[(6-methylpyridin-3-yl)carbonyl]pyrrolidin-3-yl} urea] | 76% | –
Cc1ccc(C(=O)N2CC[C@@H](NC(=O)N(Cc3ccccc3)C(C)C)C2)cn1 [Example 51, N-benzyl-N-isopropyl-N'-{(3R)-1-[(6-methylpyridin-3-yl)carbonyl]pyrrolidin-3-yl}urea] | – | inhibition at 0.001 µM: 60%
CCCCN(Cc1ccccc1)C(=O)N[C@@H]1CCN(C(=O)c2ccc(C)nc2)C1 [Example 52, N-benzyl-N-butyl-N'-{(3R)-1-[(6-methylpyridin-3-yl)carbonyl]pyrrolidin-3-yl}urea] | – | inhibition at 0.001 µM: 80%
Cc1ccc(C(=O)N2CC[C@@H](NC(=O)N(Cc3ccccc3)Cc3ccccc3)C2)cn1 [Example 53, N,N-dibenzyl-N'-{(3R)-1-[(6-methylpyridin-3-yl)carbonyl]pyrrolidin-3-yl} urea] | 78% | –
Cc1ccc(C(=O)N2CC[C@@H](NC(=O)N(CCc3ccccc3)Cc3ccccc3)C2)cn1 [Example 54, N-benzyl-N'-{(3R)-1-[(6-methylpyridin-3-yl)carbonyl]pyrrolidin-3-yl}-N-(2-phenylethyl)urea] | – | inhibition at 0.001 µM: 78%
CCN(CC)C(=O)C1CCCN(C(=O)N[C@@H]2CCN(C(=O)c3ccc(C)nc3)C2)C1 (stereo partly drawn) [Example 55, N^3,N^3-diethyl-N^1-{(3R)-1-[(6-methylpyridin-3-yl)carbonyl]pyrrolidin-3-yl}piperidine-1,3-dicarboxamide] | – | inhibition at 0.001 µM: 93%
Cc1ccc(C(=O)N2CC[C@@H](NC(=O)N3CCC(n4c(=O)[nH]c5ccccc54)CC3)C2)cn1 [Example 56, N-{(3R)-1-[(6-methylpyridin-3-yl)carbonyl]pyrrolidin-3-yl}-4-(2-oxo-2,3-dihydro-1H-benzimidazol-1-yl)piperidine-1-carboxamide] | 86% | –
CCN1CCN(C(=O)N[C@@H]2CCN(C(=O)c3ccc(C)nc3)C2)CC1 [Example 57, 4-ethyl-N-{(3R)-1-[(6-methylpyridin-3-yl)carbonyl]pyrrolidin-3-yl}piperazine-1-carboxamide] | 86% | –
Cc1ccc(C(=O)N2CC[C@@H](NC(=O)N3CCN(Cc4ccccc4)CC3)C2)cn1 [Example 58, 4-benzyl-N-{(3R)-1-[(6-methylpyridin-3-yl)carbonyl]pyrrolidin-3-yl}piperazine-1-carboxamide] | 71% | –
CCCN(C)C(=O)N[C@@H]1CCN(C(=O)c2ccc(C)nc2)C1 [Example 59, N-methyl-N'-{(3R)-1-[(6-methylpyridin-3-yl)carbonyl]pyrrolidin-3-yl}-N-propylurea] | 93% | –
Cc1ccc(C(=O)N2CC[C@@H](NC(=O)N(C)CC(C)C)C2)cn1 [Example 60, N-isobutyl-N-methyl-N'-{(3R)-1-[(6-methylpyridin-3-yl)carbonyl]pyrrolidin-3-yl}urea] | 67% | –
Cc1ccc(C(=O)N2CC[C@@H](NC(=O)N(C)CCC(C)C)C2)cn1 [Example 61, N-methyl-N-(3-methylbutyl)-N'-{(3R)-1-[(6-methylpyridin-3-yl)carbonyl]pyrrolidin-3-yl}urea] | 66% | –
C#CCN(C)C(=O)N[C@@H]1CCN(C(=O)c2ccc(C)nc2)C1 [Example 62, N-methyl-N'-{(3R)-1-[(6-methylpyridin-3-yl)carbonyl]pyrrolidin-3-yl}-N-prop-2-ynylurea] | 54% | –
CCCN(CC)C(=O)N[C@@H]1CCN(C(=O)c2ccc(C)nc2)C1 [Example 63, N-ethyl-N'-{(3R)-1-[(6-methylpyridin-3-yl)carbonyl]pyrrolidin-3-yl}-N-propylurea] | 72% | –
